Measured values taken from patent US20250195521A1 (Revolution Medicines, Inc., priority 2020, published 2025).

How the values were obtained:
KRAS Q61H = KRAS Q61H (Homo sapiens (Human), UniProt P01116+P62937, Q61H); assay: Ras-Raf disruption/FRET/MOA assay (BRAF RBD, Cyclophilin A); assay type: biochemical
How it was run: (§1)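 Ras-GMPPNP (12.5 nM), BRAF RBD (50 nM) and 25 μM Cyclophilin A were incubated with compound for 3 h at 25° C, then detected 1.5 h with anti-His Eu and anti-GST APC; IC50 values follow from the reduced TR-FRET ratio.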

KRAS G12D = KRAS G12D (Homo sapiens (Human), UniProt P01116+P62937, G12D); assay: as above; assay type: biochemical; settings: read-out: KRAS G12D FRET IC50
How it was run: as §1

KRAS G12S = KRAS G12S (Homo sapiens (Human), UniProt P01116+P62937, G12S); assay: as above; assay type: biochemical; settings: read-out: KRAS G12S FRET IC50
How it was run: as §1

KRAS G13D = KRAS G13D (Homo sapiens (Human), UniProt P01116+P62937, G13D); assay: as above; assay type: biochemical; settings: read-out: KRAS G13D FRET data IC50
How it was run: as §1

KRAS G12V = KRAS G12V (Homo sapiens (Human), UniProt P01116+P62937, G12V); assay: as above; assay type: biochemical; settings: read-out: KRAS G12V FRET IC50
How it was run: as §1

NRAS WT = NRAS WT (Homo sapiens (Human), UniProt P01111+P62937); assay: as above; assay type: biochemical
How it was run: (§2)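 TR-FRET readout: anti-His Eu-W1024 (10 nM) and anti-GST allophycocyanin (50 nM) added after 3 h, 25° C compound incubation, then 1.5 h more. Decrease in FRET ratio versus DMSO wells marks Ras:RAF disruption; IC50 reported.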

KRAS WT = KRAS WT (Homo sapiens (Human), UniProt P01116+P62937); assay: as above; assay type: biochemical; settings: read-out: KRAS WT FRET data IC50
How it was run: as §1

KRAS G12C = KRAS G12C (Homo sapiens (Human), UniProt P01116+P62937, G12C); assay: as above; assay type: biochemical; settings: read-out: KRAS G12C FRET IC50
How it was run: as §1

NRAS Q61R = NRAS Q61R (Homo sapiens (Human), UniProt P01111+P62937, Q61R); assay: as above; assay type: biochemical
How it was run: as §2

NRAS G12C = NRAS G12C (Homo sapiens (Human), UniProt P01111+P62937, G12C); assay: as above; assay type: biochemical; settings: read-out: NRAS G12C FRET data IC50
How it was run: as §2

KRAS G13C = KRAS G13C (Homo sapiens (Human), UniProt P01116+P62937, G13C); assay: as above; assay type: biochemical; settings: read-out: KRAS G13C FRET IC50
How it was run: as §1

NRAS Q61K = NRAS Q61K (Homo sapiens (Human), UniProt P01111+P62937, Q61K); assay: as above; assay type: biochemical
How it was run: as §2

NCI-H358 (K-Ras G12C) = assay: CellTiter-Glo cell viability assay, NCI-H358; assay type: cell-based, human; settings: Homo sapiens, NCI-H358, 120 h, 5-day treatment; read-out: H358 Cell Viability assay data (K-Ras G12C, IC50)
How it was run: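 NCI-H358 (K-Ras G12C) cells treated with compound dispensed directly into plates. CellTiter-Glo luminescence read on day 5 after ~30 min equilibration to room temperature. Signal normalised to DMSO average ×100, then fitted with a four-parameter logistic model.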

KRAS G12C, sequence (P01116-2 other isoform, or with tags, fused parts or gaps G12C): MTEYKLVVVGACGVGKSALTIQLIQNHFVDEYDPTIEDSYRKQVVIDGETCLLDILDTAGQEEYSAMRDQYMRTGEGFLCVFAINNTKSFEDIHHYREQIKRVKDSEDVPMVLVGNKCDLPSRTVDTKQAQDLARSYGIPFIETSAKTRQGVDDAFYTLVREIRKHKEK
KRAS G12C, sequence (P62937 whole entry): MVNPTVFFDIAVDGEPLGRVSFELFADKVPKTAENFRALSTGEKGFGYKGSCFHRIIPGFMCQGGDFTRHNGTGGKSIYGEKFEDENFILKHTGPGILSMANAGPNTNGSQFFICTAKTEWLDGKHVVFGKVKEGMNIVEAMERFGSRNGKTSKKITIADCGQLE
NRAS G12C, sequence (P01111 whole entry G12C): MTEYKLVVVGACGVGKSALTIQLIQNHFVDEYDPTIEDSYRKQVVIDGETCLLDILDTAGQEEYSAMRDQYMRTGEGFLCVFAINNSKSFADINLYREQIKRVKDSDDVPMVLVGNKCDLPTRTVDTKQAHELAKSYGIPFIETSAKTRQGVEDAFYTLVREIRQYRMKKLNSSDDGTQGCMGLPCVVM
NRAS G12C, sequence (P62937 whole entry): as the sequence (P62937 whole entry) above
KRAS Q61H, sequence (P01116 other isoform, or with tags, fused parts or gaps Q61H): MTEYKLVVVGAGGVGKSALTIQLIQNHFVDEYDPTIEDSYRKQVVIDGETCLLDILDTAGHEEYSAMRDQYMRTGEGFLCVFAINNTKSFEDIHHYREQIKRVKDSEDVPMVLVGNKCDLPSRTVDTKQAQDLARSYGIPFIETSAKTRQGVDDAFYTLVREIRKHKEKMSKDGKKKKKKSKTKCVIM
KRAS Q61H, sequence (P62937 whole entry): as the sequence (P62937 whole entry) above
KRAS G13C, sequence (P01116 other isoform, or with tags, fused parts or gaps G13C): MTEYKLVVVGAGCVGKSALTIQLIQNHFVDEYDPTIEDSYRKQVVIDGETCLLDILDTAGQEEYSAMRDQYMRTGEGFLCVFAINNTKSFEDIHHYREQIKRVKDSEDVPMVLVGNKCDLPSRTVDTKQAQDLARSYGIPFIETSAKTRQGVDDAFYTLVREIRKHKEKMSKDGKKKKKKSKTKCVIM
KRAS G13C, sequence (P62937 whole entry): as the sequence (P62937 whole entry) above
KRAS G13D, sequence (P01116 other isoform, or with tags, fused parts or gaps G13D): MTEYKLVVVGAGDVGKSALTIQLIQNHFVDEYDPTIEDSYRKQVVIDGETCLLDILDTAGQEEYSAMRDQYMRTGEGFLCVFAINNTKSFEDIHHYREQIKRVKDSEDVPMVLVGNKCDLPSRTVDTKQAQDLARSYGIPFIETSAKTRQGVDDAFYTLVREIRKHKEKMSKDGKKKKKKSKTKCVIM
KRAS G13D, sequence (P62937 whole entry): as the sequence (P62937 whole entry) above
KRAS G12V, sequence (P01116 other isoform, or with tags, fused parts or gaps G12V): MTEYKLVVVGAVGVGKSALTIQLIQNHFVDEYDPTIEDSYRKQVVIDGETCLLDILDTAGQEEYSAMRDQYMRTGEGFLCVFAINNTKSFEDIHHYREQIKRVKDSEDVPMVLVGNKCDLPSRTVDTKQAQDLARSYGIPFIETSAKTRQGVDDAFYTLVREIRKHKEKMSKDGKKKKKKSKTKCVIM
KRAS G12V, sequence (P62937 whole entry): as the sequence (P62937 whole entry) above
NRAS WT, sequence (P01111 whole entry): as the sequence (P01111 whole entry G12C) above, with C12G counted along it
NRAS WT, sequence (P62937 whole entry): as the sequence (P62937 whole entry) above
NRAS Q61K, sequence (P01111 whole entry Q61K): as the sequence (P01111 whole entry G12C) above, with C12G, Q61K counted along it
NRAS Q61K, sequence (P62937 whole entry): as the sequence (P62937 whole entry) above
KRAS WT, sequence (P01116 other isoform, or with tags, fused parts or gaps): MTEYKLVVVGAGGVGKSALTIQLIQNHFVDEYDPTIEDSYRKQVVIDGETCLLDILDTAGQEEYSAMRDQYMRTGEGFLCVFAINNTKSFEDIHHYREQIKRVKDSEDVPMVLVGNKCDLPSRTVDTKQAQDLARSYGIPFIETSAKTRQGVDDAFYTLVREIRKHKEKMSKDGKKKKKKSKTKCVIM
KRAS WT, sequence (P62937 whole entry): as the sequence (P62937 whole entry) above
NRAS Q61R, sequence (P01111 whole entry Q61R): as the sequence (P01111 whole entry G12C) above, with C12G, Q61R counted along it
NRAS Q61R, sequence (P62937 whole entry): as the sequence (P62937 whole entry) above
KRAS G12D, sequence (P01116 other isoform, or with tags, fused parts or gaps G12D): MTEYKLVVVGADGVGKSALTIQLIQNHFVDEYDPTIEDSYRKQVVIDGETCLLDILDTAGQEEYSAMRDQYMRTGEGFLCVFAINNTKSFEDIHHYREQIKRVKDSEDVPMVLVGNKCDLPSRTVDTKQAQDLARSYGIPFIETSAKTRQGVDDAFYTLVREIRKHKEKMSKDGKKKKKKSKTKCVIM
KRAS G12D, sequence (P62937 whole entry): as the sequence (P62937 whole entry) above
KRAS G12S, sequence (P01116 other isoform, or with tags, fused parts or gaps G12S): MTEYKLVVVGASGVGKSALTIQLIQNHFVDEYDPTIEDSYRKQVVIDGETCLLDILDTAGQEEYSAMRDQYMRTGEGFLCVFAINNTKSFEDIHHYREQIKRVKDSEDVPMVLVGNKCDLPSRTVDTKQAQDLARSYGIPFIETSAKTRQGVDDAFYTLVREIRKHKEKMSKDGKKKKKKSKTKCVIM
KRAS G12S, sequence (P62937 whole entry): as the sequence (P62937 whole entry) above

| SMILES | IC50 (KRAS Q61H) [nM] | IC50 (KRAS G12D) [nM] | IC50 (KRAS G12S) [nM] | IC50 (KRAS G13D) [nM] | IC50 (KRAS G12V) [nM] | IC50 (NRAS WT) [nM] | IC50 (KRAS WT) [nM] | IC50 (KRAS G12C) [nM] | IC50 (NRAS Q61R) [nM] | IC50 (NRAS G12C) [nM] | IC50 (KRAS G13C) [nM] | IC50 (NRAS Q61K) [nM] | IC50 (NCI-H358 (K-Ras G12C)) [nM] |
| --- | --- | --- | --- | --- | --- | --- | --- | --- | --- | --- | --- | --- | --- |
| CCn1c(-c2cccnc2[C@H](C)OC)c2c3cc(ccc31)-c1cc(O)cc(c1)C[C@H](NC(=O)[C@@H]1[C@H]3C[C@H]3CN1C(C)=O)C(=O)N1CCC[C@H](N1)C(=O)OCC(C)(C)C2 [Compound A207] | 100 to 1000 | > 10000 | 1000 to 10000 | 1000 to 10000 | 1000 to 10000 | 1000 to 10000 | 1000 to 10000 | 100 to 1000 | 1000 to 10000 | 1000 to 10000 | 100 to 1000 | 1000 to 10000 | 10 to 100 |
| CCn1c(-c2cccnc2[C@H](C)OC)c2c3cc(ccc31)-c1cc(O)cc(c1)C[C@H](NC(=O)[C@@H]1[C@@H](C)CCCN1C(C)=O)C(=O)N1CCC[C@H](N1)C(=O)OCC(C)(C)C2 [Compound A324] | 10 to 100 | 1000 to 10000 | 100 to 1000 | 100 to 1000 | 100 to 1000 | 100 to 1000 | 100 to 1000 | 100 to 1000 | 1000 to 10000 | 100 to 1000 | 10 to 100 | 100 to 1000 | < 10 |
| CCn1c(-c2cccnc2[C@H](C)OC)c2c3cc(ccc31)-c1cc(O)cc(c1)C[C@H](NC(=O)[C@H](C(C)C)N(C)C(=O)C13CC(CO1)C3)C(=O)N1CCC[C@H](N1)C(=O)OCC(C)(C)C2 [Compound A406] | 10 to 100 | 100 to 1000 | 10 to 100 | 100 to 1000 | 100 to 1000 | 10 to 100 | 10 to 100 | 10 to 100 | 100 to 1000 | 10 to 100 | 10 to 100 | 100 to 1000 | 10 to 100 |
| CCn1c(-c2cc(N3CCN(C)CC3)cnc2[C@H](C)OC)c2c3cc(ccc31)-c1csc(n1)C[C@H](NC(=O)[C@H](C(C)C)N(C)C(=O)[C@@H]1CCCS1(=O)=O)C(=O)N1CCC[C@H](N1)C(=O)OCC(C)(C)C2 [Compound A440] | 100 to 1000 | 1000 to 10000 | 1000 to 10000 | 1000 to 10000 | 1000 to 10000 | 100 to 1000 | 100 to 1000 | 100 to 1000 | 100 to 1000 | 100 to 1000 | 1000 to 10000 | 100 to 1000 | < 10 |
| CCn1c(-c2cccnc2[C@H](C)OC)c2c3cc(ccc31)-c1csc(n1)C[C@H](NC(=O)[C@H](C(C)C)N(C)C(=O)N1C[C@H]3CN(C)CC[C@H]31)C(=O)N1CCC[C@H](N1)C(=O)OCC(C)(C)C2 [Compound A462] | 100 to 1000 | 1000 to 10000 | 1000 to 10000 | 1000 to 10000 | 1000 to 10000 | 1000 to 10000 | 1000 to 10000 | 100 to 1000 | 1000 to 10000 | 100 to 1000 | 100 to 1000 | 100 to 1000 | < 10 |
| CCn1c(-c2cccnc2[C@H](C)OC)c2c3cc(ccc31)-c1csc(n1)C[C@H](NC(=O)[C@H](C(C)C)N(C)C(=O)N1CC[C@H]1CN)C(=O)N1CCC[C@H](N1)C(=O)OCC(C)(C)C2 [Compound A463] | 100 to 1000 | 100 to 1000 | 100 to 1000 | 100 to 1000 | 100 to 1000 | 100 to 1000 | 100 to 1000 | 100 to 1000 | 1000 to 10000 | 100 to 1000 | 100 to 1000 | 1000 to 10000 | < 10 |
| CCn1c(-c2cccnc2[C@H](C)OC)c2c3cc(ccc31)-c1csc(n1)C[C@H](NC(=O)[C@H](C(C)C)N(C)C(=O)N1CCCC13CN(C)C3)C(=O)N1CCC[C@H](N1)C(=O)OCC(C)(C)C2 [Compound A545] | 10 to 100 | 100 to 1000 | 100 to 1000 | 100 to 1000 | 100 to 1000 | 10 to 100 | 10 to 100 | 100 to 1000 | 100 to 1000 | 10 to 100 | 100 to 1000 | 100 to 1000 | 10 to 100 |
| CCn1c(-c2cccnc2[C@H](C)OC)c2c3cc(ccc31)-c1csc(n1)C[C@H](NC(=O)[C@H](C(C)C)N(C)C(=O)N1CC[C@@H]1CN)C(=O)N1CCC[C@H](N1)C(=O)OCC(C)(C)C2 [Compound A558] | 10 to 100 | 100 to 1000 | 10 to 100 | 10 to 100 | 100 to 1000 | 10 to 100 | 10 to 100 | 10 to 100 | 100 to 1000 | 10 to 100 | 100 to 1000 | 100 to 1000 | 10 to 100 |
| CCn1c(-c2cccnc2[C@H](C)OC)c2c3cc(ccc31)-c1csc(n1)C[C@H](NC(=O)[C@H](C(C)C)N(C)C(=O)N1CC(O)(CN(C)C)C1)C(=O)N1CCC[C@H](N1)C(=O)OCC(C)(C)C2 [Compound A597] | 100 to 1000 | 1000 to 10000 | 100 to 1000 | 100 to 1000 | 100 to 1000 | 100 to 1000 | 100 to 1000 | 100 to 1000 | 100 to 1000 | 100 to 1000 | 100 to 1000 | 100 to 1000 | < 10 |
| CCn1c(-c2cccnc2[C@H](C)OC)c2c3cc(ccc31)-c1csc(n1)C[C@H](NC(=O)[C@H](C(C)C)N(C)C(=O)N1CCC[C@H]1c1ccccc1)C(=O)N1CCC[C@H](N1)C(=O)OCC(C)(C)C2 [Compound A599] | 100 to 1000 | 1000 to 10000 | 1000 to 10000 | 1000 to 10000 | 1000 to 10000 | 1000 to 10000 | 1000 to 10000 | 1000 to 10000 | 1000 to 10000 | 1000 to 10000 | 1000 to 10000 | 1000 to 10000 | – |
| CCn1c(-c2cccnc2[C@H](C)OC)c2c3cc(ccc31)-c1cc(O)cc(c1)C[C@H](NC(=O)[C@H](C(C)C)N(C)C(=O)[C@]1(F)CCN(C(=O)OC)C1)C(=O)N1CCC[C@H](N1)C(=O)OCC(C)(C)C2 [Compound A616] | 10 to 100 | 100 to 1000 | 100 to 1000 | 100 to 1000 | 100 to 1000 | 100 to 1000 | 10 to 100 | 10 to 100 | 100 to 1000 | 10 to 100 | 10 to 100 | 100 to 1000 | – |
